From patent US20090304615A1, “TRICYCLIC COMPOUNDS AS MELANOGENESIS MODIFIERS AND USES THEREOF” (priority 2007, published 2009)
Where a name gives a salt, the structure may show the parent alone.

Tested on: cultured murine melanocytes (melan-a)
Test: Melanin assay in cultured murine melanocytes (melan-a)
Format: cell-based
Settings: Mus musculus, melan-a cells; for inhibition at 1 µM / inhibition at 5 µM: melanin formation, 72 hours of incubation; for IC50: melanin synthesis, read-out: IC50 range
Description: The Spectrum Collection library consisting of 2000 drug compounds or natural products was screened to identify novel pigmentation inhibitors or stimulators in cultured murine melanocytes (melan-a). Compounds were dissolved in dimethylsulfoxide (DMSO) to a final concentration of 10 mM. Screening was performed with cultured melanocytes in 24-well plates followed by melanin assay (see below). […] DMSO was used as a negative control and the widely used depigmenting agent, hydroquinone, was used as a positive control on every plate. […] All compounds were added at the indicated final concentrations. Cells were harvested after 72 hours of incubation, and melanin assay was performed. For further test and mechanism of action studies, the compounds were purchased from either Sigma or Microsoure. These compounds were dissolved in dimethylsulfoxide (DMSO) to a final concentration of 10 mM, and were tested for their effect on melanin synthesis at the indicated final concentrations. For the primary and secondary screening, cells were harvested and dissolved in 200 μl of 2N NaOH in 20% DMSO at 70° C. A 180-μl aliquot of the resulting solution was measured for absorbance at 490 nm. […] The lysates were centrifuged at 14,000 rpm for 10 minutes at 4° C. BCA protein assay kit (Pierce) was used to measure the protein concentrations of the supernatants, and bovine serum albumin was used as a standard. […] A 180-μl aliquot of the resulting solution was measured for absorbance at 490 nm. The melanin contents were normalized to the total amount of protein.

| IC50 [µM] | SMILES | inhibition at 1 µM [%] | inhibition at 5 µM [%] |
| --- | --- | --- | --- |
| < 1 | CN(C)CCC=C1c2ccccc2CCc2ccccc21 [compound 2, Amitriptyline hydrochloride] | 51 | 65 |
| 1 to 2.5 | CC(CN(C)C)CN1c2ccccc2CCc2ccccc21 (centres unmarked) [compound 3, Trimpramine maleate] | 28 | 48 |
| < 1 | CN(C)CCCN1c2ccccc2CCc2ccccc21 [compound 5, Imipramine hydrochloride] | 34 | 60 |
| 2.5 to 5 | CNCCCN1c2ccccc2CCc2ccccc21 [compound 6, Despramine hydrochloride] |  |  |
| 5 to 10 | CNCCCC1c2ccccc2C=Cc2ccccc21 [compound 8, Protriptyline hydrochloride] |  |  |

| SMILES | IC50 [µM] | inhibition at 1 µM [%] | inhibition at 5 µM [%] |
| --- | --- | --- | --- |
| CNCCC=C1c2ccccc2CCc2ccccc21 [compound 1, Nortriptyline] | 1 to 2.5 | 39 | 58 |
